Measured values taken from publication PMC2229537 (The Journal of General Physiology, 2002).
“And” between values parts separate entries of the source, which are not always exact repeats. Equal values may be shown once.

What was measured:
[1] = target: wild-type AChR (Homo sapiens, UniProt P02708+Q04844+Q07001); assay type: binding; settings: 100 μM proadifen
[2] = test system: adult human receptor; settings: resting closed state; ref Ohno et al., 1996; Wang et al., 1999; cited from earlier work
[3] = test system: EP AChRs of CMS patient (εD175N and εN182Y); experiment: Patch-clamp recordings of ACh-elicited channel currents from patient endplates; assay type: cell-based, human; settings: −80 mV
[4] = test system: Torpedo receptor; settings: resting closed state; ref Sine et al., 1990; cited from earlier work
[5] = test system: fetal mouse receptor; settings: resting closed state; ref Zhang et al., 1995; cited from earlier work
[6] = ACh 5 μM, 8 kHz, 22°C, mean ± SE, four EPs

wild-type AChR, sequence (P02708 21-457): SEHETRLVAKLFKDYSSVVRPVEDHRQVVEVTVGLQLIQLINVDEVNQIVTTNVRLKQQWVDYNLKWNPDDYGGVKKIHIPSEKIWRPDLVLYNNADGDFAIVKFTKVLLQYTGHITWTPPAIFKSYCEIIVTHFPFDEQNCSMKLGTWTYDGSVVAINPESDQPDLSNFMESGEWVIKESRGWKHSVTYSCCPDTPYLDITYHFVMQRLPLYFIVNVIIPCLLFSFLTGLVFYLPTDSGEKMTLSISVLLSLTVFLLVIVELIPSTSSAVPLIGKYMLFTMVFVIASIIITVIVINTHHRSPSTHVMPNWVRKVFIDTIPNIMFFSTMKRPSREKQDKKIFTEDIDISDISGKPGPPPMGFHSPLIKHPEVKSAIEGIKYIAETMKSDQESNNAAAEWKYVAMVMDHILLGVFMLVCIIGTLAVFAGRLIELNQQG
wild-type AChR, sequence (P11230 24-501 partner): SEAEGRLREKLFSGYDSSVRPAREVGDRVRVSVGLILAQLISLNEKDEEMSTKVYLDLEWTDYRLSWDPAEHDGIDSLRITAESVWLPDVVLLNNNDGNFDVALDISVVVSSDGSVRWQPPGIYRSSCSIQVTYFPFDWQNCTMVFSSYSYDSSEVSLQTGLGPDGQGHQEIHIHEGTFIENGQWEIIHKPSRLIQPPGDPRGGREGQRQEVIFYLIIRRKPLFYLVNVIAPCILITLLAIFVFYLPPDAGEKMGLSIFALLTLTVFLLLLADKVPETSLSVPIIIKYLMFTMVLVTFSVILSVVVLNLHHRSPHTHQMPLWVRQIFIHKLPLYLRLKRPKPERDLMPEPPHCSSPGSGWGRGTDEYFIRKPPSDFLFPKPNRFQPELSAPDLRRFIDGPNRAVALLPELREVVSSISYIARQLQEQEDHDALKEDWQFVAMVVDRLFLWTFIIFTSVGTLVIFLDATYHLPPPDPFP
wild-type AChR, sequence (Q07001 22-517): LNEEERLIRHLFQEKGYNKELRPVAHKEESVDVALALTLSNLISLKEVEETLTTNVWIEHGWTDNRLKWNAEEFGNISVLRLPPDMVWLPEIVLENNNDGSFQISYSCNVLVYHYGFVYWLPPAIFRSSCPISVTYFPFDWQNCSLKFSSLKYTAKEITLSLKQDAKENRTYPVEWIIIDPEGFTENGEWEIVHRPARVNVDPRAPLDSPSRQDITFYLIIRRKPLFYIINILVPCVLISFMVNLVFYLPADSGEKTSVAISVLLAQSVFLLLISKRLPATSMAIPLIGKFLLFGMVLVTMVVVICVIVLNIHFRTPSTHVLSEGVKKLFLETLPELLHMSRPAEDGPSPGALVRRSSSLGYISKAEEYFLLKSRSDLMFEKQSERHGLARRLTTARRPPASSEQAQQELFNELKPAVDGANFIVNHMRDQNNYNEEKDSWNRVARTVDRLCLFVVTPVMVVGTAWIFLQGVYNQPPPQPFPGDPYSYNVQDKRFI
wild-type AChR, sequence (Q04844 21-493): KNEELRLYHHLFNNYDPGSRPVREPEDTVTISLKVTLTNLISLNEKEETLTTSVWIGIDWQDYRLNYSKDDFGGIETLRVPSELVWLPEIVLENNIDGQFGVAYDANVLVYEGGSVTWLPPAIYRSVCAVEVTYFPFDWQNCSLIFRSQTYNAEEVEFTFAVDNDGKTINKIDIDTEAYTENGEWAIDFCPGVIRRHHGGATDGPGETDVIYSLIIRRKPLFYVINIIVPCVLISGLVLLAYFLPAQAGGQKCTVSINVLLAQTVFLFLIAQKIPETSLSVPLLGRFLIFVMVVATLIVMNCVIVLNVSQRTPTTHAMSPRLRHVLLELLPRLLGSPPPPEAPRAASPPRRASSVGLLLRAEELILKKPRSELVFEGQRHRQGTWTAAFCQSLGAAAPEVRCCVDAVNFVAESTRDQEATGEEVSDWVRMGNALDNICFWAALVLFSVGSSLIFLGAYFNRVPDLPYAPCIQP

Compound: CCCC(C(=O)OCCN(CC)CC)(c1ccccc1)c1ccccc1 [proadifen]
- increase of ACh affinity in the presence of proadifen [1]: ~100 fold

Compound: CC(=O)OCC[N+](C)(C)C [ACh, acetylcholine]
- difference in ACh affinity for the two sites [2]: sixfold
- Bursts τ1 [3, 6]: 0.17 ± 0.025 ms
- Bursts τ2 [3, 6]: 0.59 ms and 0.59 ± 0.061 ms
- Bursts, area of τ1 component [3, 6]: 0.61 ± 0.061
- Bursts, area of τ2 component [3, 6]: 0.39 ± 0.061
- Open intervals τ1 [3, 6]: 0.17 ± 0.021 ms
- Open intervals τ2 [3, 6]: 0.51 ± 0.037 ms
- Open intervals, area of τ1 component [3, 6]: 0.65 ± 0.19
- Open intervals, area of τ2 component [3, 6]: 0.34 ± 0.096
- burst duration time constant τ1 ([3]; Fig. 1 histogram, one patient, 5 μM ACh): 0.185
- difference in ACh affinity for the two sites [4]: ~100 fold
- difference in ACh affinity for the two sites [5]: 32 fold
